# Laboratory results taken from PMC5522311, “Adapting AlphaLISA high throughput screen to discover a novel small-molecule inhibitor targeting protein arginine methyltransferase 5 in pancreatic and colorectal cancers” (Oncotarget, 2017).
# Target: T1, protein arginine methyltransferase 5 (PRMT5) (Homo sapiens, UniProt O14744)
# T1 construct: Flag-tagged WT-PRMT5 purified from 293 cells with anti-Flag-M2 beads
# Assay: AlphaLISA methyltransferase assay (biotinylated histone H4 R3 symmetric dimethylation)
# Assay type: biochemical
# T1 sequence (O14744 2-637): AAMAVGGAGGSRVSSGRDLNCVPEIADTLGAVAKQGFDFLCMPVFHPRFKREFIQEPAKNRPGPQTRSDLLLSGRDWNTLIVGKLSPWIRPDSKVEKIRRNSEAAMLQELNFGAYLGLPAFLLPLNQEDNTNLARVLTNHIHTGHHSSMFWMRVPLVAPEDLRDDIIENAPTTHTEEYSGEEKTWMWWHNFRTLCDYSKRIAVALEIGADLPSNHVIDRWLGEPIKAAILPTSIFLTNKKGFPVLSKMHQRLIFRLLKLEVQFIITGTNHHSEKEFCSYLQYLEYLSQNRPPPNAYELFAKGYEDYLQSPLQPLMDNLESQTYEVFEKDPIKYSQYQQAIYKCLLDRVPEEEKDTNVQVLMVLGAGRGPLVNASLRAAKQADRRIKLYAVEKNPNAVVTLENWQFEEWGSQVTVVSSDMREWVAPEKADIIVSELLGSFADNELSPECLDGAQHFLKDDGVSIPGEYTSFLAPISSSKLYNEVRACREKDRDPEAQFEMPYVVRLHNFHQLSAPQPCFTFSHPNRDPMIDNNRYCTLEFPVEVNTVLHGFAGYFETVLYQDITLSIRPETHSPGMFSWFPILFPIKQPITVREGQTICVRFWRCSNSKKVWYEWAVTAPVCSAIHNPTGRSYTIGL
structure (smiles),measurement,value
Cc1ccc(Nc2nc(NCCN(C)C)nc3c2cnn3-c2ccccc2)cc1C [PR5-LL-CM01],IC50,7.5 µM
